For 15 compounds, IC50 results are on record in patent publication US10821115B2, “Compounds that inhibit Mcl-1 protein” (priority 2017, dated 2020).

pIC50: −log10 of the molar value. Like-named read-outs stand apart in the source and are kept apart here.

In test [1] the target is recombinant human Mcl-1 (residues 171-327) / Bim interaction (Homo sapiens (Human), UniProt Q07820). Description: biochemical. To be noted: read-out: Mcl-1 HTRF IC50. Type of test: binding. Background: TR-FRET usually uses a lanthanide donor and a delayed reading to cut background.
The test system of test [2] is human multiple myeloma cell line, OPM-2. Description: Cell viability assay (OPM-2 10 FBS), CellTiter-Glo. Type of test: cell-based. The procedure, abridged:
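Serially diluted test compounds are incubated 16 h with cells (3000/well) in RPMI 1640 supplemented with 10% FBS. Viability is then measured by luminescence and IC50 calculated by 4-parameter logistic fit.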
(ATP-based viability assays read luminescence as a measure of living cells.)

The mark [3] stands for this setting: TR-FRET, Mcl-1(171-327) / biotin-Bim (51-76).
The mark [4] stands for this setting: Homo sapiens, OPM-2, 16 h, read-out: OPM-2 10% FBS IC50 IP, OPM-2 cells, 10% FBS, 16 h, CellTiter-Glo.
Where [5] appears, read: 0.1 nM Mcl-1(171-327), 0.05 nM biotin-Bim (51-76).
Where [6] appears, read: read-out: OPM-2 10% FBS IC50 IP, OPM-2 cells, 10% FBS, 16 h, CellTiter-Glo.

Chain of recombinant human Mcl-1 (residues 171-327) / Bim interaction (Q07820 171-327): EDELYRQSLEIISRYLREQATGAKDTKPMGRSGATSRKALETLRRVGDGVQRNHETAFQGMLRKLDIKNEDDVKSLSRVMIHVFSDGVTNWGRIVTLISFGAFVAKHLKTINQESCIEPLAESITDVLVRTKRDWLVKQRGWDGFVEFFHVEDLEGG

What is called pIC50 is the IC50 on a negative log10 scale, so that one unit is a factor of ten. `CO[C@@]1(CC(=O)c2ccccc2)/C=C/C[C@H](C)[C@@H](C)S(=O)(=O)NC(=O)c2ccc3c(c2)N(C[C@@H]2CC[C@H]21)C[C@@]1(CCCc2cc(Cl)ccc21)CO3` [Example 100458, (1S,3′R,6′R,7′S,8′E,11′S,12′R)-6-chloro-7′-methoxy-11′,12′-dimethyl-7′-(2-oxo-2-phenylethyl)-3,4-dihydro-2H,15′H-spiro[naphthalene-1,22′-[20]oxa[13]thia[1,14]diazatetracyclo [14.7.2.0~3,6~.0~19,24~]pentacosa[8,16,18,24]tetraen]-15′-one 13′,13′-dioxide]: the negative logarithm of the IC50 (pIC50) in test [1] (setting [3]) is 9.68; in test [2] (setting [4]), 6.38.

As for `CO[C@@]1(C[C@@H](C)O)/C=C/C[C@H](C)[C@@H](C)S(=O)(=O)NC(=O)c2ccc3c(c2)N(C[C@@H]2CC[C@H]21)C[C@@]1(CCCc2cc(Cl)ccc21)CO3` [Example 100435, (1S,3′R,6′R,7′S,8′E,11′S,12′R)-6-chloro-7′-((2R)-2-hydroxypropyl)-7′-methoxy-11′,12′-dimethyl-3,4-dihydro-2H,15′H-spiro[naphthalene-1,22′-[20]oxa[13]thia[1,14]diazatetracyclo [14.7.2.0~3,6~.0~19,24~]pentacosa[8,16,18,24]tetraen]-15′-one 13′,13′-dioxide], the negative-log IC50 (pIC50) was 10.26 in test [1] (setting [3]) and 6.52 in test [2] (setting [4]).

As for `C[C@@H]1[C@@H](C)C/C=C/[C@@](O)(c2cncnc2)[C@@H]2CC[C@H]2CN2C[C@@]3(CCCc4cc(Cl)ccc43)COc3ccc(cc32)C(=O)NS1(=O)=O` (single isomer, unassigned) [Example 100434], the figures for the pIC50 in test [1] (setting [3]) and in test [2] (setting [4]) were 9.79 and 6.32, respectively.

As for `C[C@@H]1[C@@H](C)CCCC2(CN(S(C)(=O)=O)CCO2)[C@@H]2CC[C@H]2CN2C[C@@]3(CCCc4cc(Cl)ccc43)COc3ccc(cc32)C(=O)NS1(=O)=O` (stereo partly drawn) [Example 466], the negative-log IC50 (pIC50) in test [1] (setting [5]) was 9.05; in test [2] (read-out: OPM-2 10% FBS IC50 IP, OPM-2 cells, 10% FBS, 16 h incubation) it was 6.35.

With `CC[C@]1(O)CCC[C@H](C)[C@@H](C)S(=O)(=O)NC(=O)c2ccc3c(c2)N(C[C@@H]2CC[C@H]21)C[C@@]1(CCCc2cc(Cl)ccc21)CO3` [Example 100076, (1S,3′R,6′R,7′S,11′S,12′R)-6-chloro-7′-ethyl-7′-hydroxy-11′,12′-dimethyl-3,4-dihydro-2H,15′H-spiro[naphthalene-1,22′-[20]oxa[13]thia[1,14]diazatetracyclo [14.7.2.0~3,6~.0~19,24~]pentacosa[16,18,24]trien]-15′-one 13′,13′-dioxide], the pIC50 in test [1] (setting [3]) was 8.02; in test [2] (setting [4]), 5.57.

For the compound `CCN(CC)C(=O)C[C@]1(O)/C=C/C[C@H](C)[C@@H](C)S(=O)(=O)NC(=O)c2ccc3c(c2)N(C[C@@H]2CC[C@H]21)C[C@@]1(CCCc2cc(Cl)ccc21)CO3` [Example 100083, 2-((1S,3′R,6′R,7′S,8′E,11′S,12′R)-6-chloro-7′-hydroxy-11′,12′-dimethyl-13′,13′-dioxido-15′-oxo-3,4-dihydro-2H-spiro[naphthalene-1,22′-[20]oxa[13]thia[1,14]diazatetracyclo [14.7.2.0~3,6~.0~19,24~]pentacosa[8,16,18,24]tetraen]-7′-yl)-N,N-diethylacetamide], the negative-log IC50 (pIC50) was 9.75 in test [1] (setting [3]) and 6.91 in test [2] (setting [4]).

As to `CO[C@]1(CN2CCN(CC(C)(C)C)CC2)/C=C/C[C@H](C)[C@@H](C)S(=O)(=O)NC(=O)c2ccc3c(c2)N(C[C@@H]2CC[C@H]21)C[C@@]1(CCCc2cc(Cl)ccc21)CO3` [Example 153, (1S,3′R,6′R,7′R,8′E,11′S,12′R)-6-chloro-7′-((4-(2,2-dimethylpropyl)-1-piperazinyl)methyl)-7′-methoxy-11′,12′-dimethyl-3,4-dihydro-2H,15′H-spiro[naphthalene-1,22′-[20]oxa[13]thia[1,14]diazatetracyclo [14.7.2.0~3,6~.0~19,24~]pentacosa[8,16,18,24]tetraen]-15′-one 13′,13′-dioxide], the pIC50 in test [1] (setting [5]) was 9.02; in test [2] (Homo sapiens, OPM-2, 16 h, read-out: OPM-2 10% FBS IC50 IP, OPM-2 cells, 10% FBS, 16 h incubation), 4.97.

On to `CC[C@@H]1CCCC[C@@](O)(CO)[C@@H]2CC[C@H]2CN2C[C@@]3(CCCc4cc(Cl)ccc43)COc3ccc(cc32)C(=O)NS1(=O)=O` [Example 100035, (1S,3′R,6′R,7′S,12′R)-6-chloro-12′-ethyl-7′-hydroxy-7′-(hydroxymethyl)-3,4-dihydro-2H,15′H-spiro[naphthalene-1,22′-[20]oxa[13]thia[1,14]diazatetracyclo [14.7.2.0~3,6~.0~19,24~]pentacosa[16,18,24]trien]-15′-one 13′,13′-dioxide], for which the pIC50 is 9.22 in test [1] (setting [3]) and 5.83 in test [2] (setting [4]).

Turning to `COC(=O)[C@]1(O)/C=C/C[C@H](C)[C@@H](C)S(=O)(=O)NC(=O)c2ccc3c(c2)N(C[C@@H]2CC[C@H]21)C[C@@]1(CCCc2cc(Cl)ccc21)CO3` [Example 100061, methyl (1S,3′R,6′R,7′S,8′E,11′S,12′R)-6-chloro-7′-hydroxy-11′,12′-dimethyl-15′-oxo-3,4-dihydro-2H-spiro[naphthalene-1,22′-[20]oxa[13]thia[1,14]diazatetracyclo [14.7.2.0~3,6~.0~19,24~]pentacosa[8,16,18,24]tetraene]-7′-carboxylate 13′,13′-dioxide], the pIC50 is 9.11 in test [1] (setting [3]) and 6.28 in test [2] (setting [4]).

Turning to `CO[C@@]1(COCCN2CCOCC2)/C=C/C[C@H](C)[C@@H](C)S(=O)(=O)NC(=O)c2ccc3c(c2)N(C[C@@H]2CC[C@H]21)C[C@@]1(CCCc2cc(Cl)ccc21)CO3` [Example 100590, (1S,3′R,6′R,7′S,8′E,11′S,12′R)-6-chloro-7′-methoxy-11′,12′-dimethyl-7′-((2-(4-morpholinyl)ethoxy)methyl)-3,4-dihydro-2H,15′H-spiro[naphthalene-1,22′-[20]oxa[13]thia[1,14]diazatetracyclo [14.7.2.0~3,6~.0~19,24~]pentacosa[8,16,18,24]tetraen]-15′-one 13′,13′-dioxide], the pIC50 is 10.07 in test [1] (setting [3]) and 6.30 in test [2] (setting [4]).

In the case of `CO[C@@]1(CC2=NCCO2)/C=C/C[C@H](C)[C@@H](C)S(=O)(=O)NC(=O)c2ccc3c(c2)N(C[C@@H]2CC[C@H]21)C[C@@]1(CCCc2cc(Cl)ccc21)CO3` [Example 100500, (1S,3′R,6′R,7′S,8′E,11′S,12′R)-6-chloro-7′-(4,5-dihydro-1,3-oxazol-2-ylmethyl)-7′-methoxy-11′,12′-dimethyl-3,4-dihydro-2H,15′H-spiro[naphthalene-1,22′-[20]oxa[13]thia[1,14]diazatetracyclo [14.7.2.0~3,6~.0~19,24~]pentacosa[8,16,18,24]tetraen]-15′-one 13′,13′-dioxide], the pIC50 in test [1] (setting [3]) is 10.31; in test [2] (setting [4]), 7.15.

Turning to `C#C[C@@]1(OCCN2CCOCC2)/C=C/C[C@H](C)[C@@H](C)S(=O)(=O)NC(=O)c2ccc3c(c2)N(C[C@@H]2CC[C@H]21)C[C@@]1(CCCc2cc(Cl)ccc21)CO3` [Example 100505, (1S,3′R,6′R,7′R,8′E,11′S,12′R)-6-chloro-7′-ethynyl-11′,12′-dimethyl-7′-(2-(4-morpholinyl)ethoxy)-3,4-dihydro-2H,15′H-spiro[naphthalene-1,22′-[20]oxa[13]thia[1,14]diazatetracyclo [14.7.2.0~3,6~.0~19,24~]pentacosa[8,16,18,24]tetraen]-15′-one 13′,13′-dioxide], the pIC50 in test [1] (setting [3]) is 9.78; in test [2] (setting [4]), 6.86.

On to `CO[C@@]1(CC(=O)N(C)C(C)(C)C)/C=C/C[C@H](C)[C@@H](C)S(=O)(=O)NC(=O)c2ccc3c(c2)N(C[C@@H]2CC[C@H]21)C[C@@]1(CCCc2cc(Cl)ccc21)CO3` [Example 100008, 2-((1 S,3′R,6′R,7′S,8′E,11′S, 12′R)-6-chloro-7′-methoxy-11′,12′-dimethyl-13′,13′-dioxido-15′-oxo-3,4-dihydro-2H-spiro[naphthalene-1,22′-[20]oxa[13]thia[1,14]diazatetracyclo[14.7.2.0-3,6˜.0˜19,24˜]pentacosa[8,16,18,24]tetraen]-7′-yl)-N-methyl-N-(2-methyl-2-propanyl)acetamide], for which the negative-log IC50 (pIC50) in test [1] (setting [3]) was 9.77; in test [2] (setting [4]), 6.27.

As for `C[C@@H]1[C@@H](C)C/C=C/[C@@](O)(Cc2ccncn2)[C@@H]2CC[C@H]2CN2C[C@@]3(CCCc4cc(Cl)ccc43)COc3ccc(cc32)C(=O)NS1(=O)=O` [Example 100151, (1S,3′R,6′R,7′S,8′E,11′S,12′R)-6-chloro-7′-hydroxy-11′,12′-dimethyl-7′-(4-pyrimidinylmethyl)-3,4-dihydro-2H,15′H-spiro[naphthalene-1,22′-[20]oxa[13]thia[1,14]diazatetracyclo [14.7.2.0~3,6~.0~19,24~]pentacosa[8,16,18,24]tetraen]-15′-one 13′,13′-dioxide], the pIC50 is 9.92 in test [1] (setting [3]) and 7.15 in test [2] (setting [6]).

`CO[C@]1(C[C@H](O)C(C)C)/C=C/C[C@H](C)[C@@H](C)S(=O)(=O)NC(=O)c2ccc3c(c2)N(C[C@@H]2CC[C@H]21)C[C@@]1(CCCc2cc(Cl)ccc21)CO3` [Example 100359, (1S,3′R,6′R,7′R,8′E,11′S,12′R)-6-chloro-7′-((2S)-2-hydroxy-3-methylbutyl)-7′-methoxy-11′,12′-dimethyl-3,4-dihydro-2H,15′H-spiro[naphthalene-1,22′-[20]oxa[13]thia[1,14]diazatetracyclo [14.7.2.0~3,6~.0~19,24~]pentacosa[8,16,18,24]tetraen]-15′-one 13′,13′-dioxide]: the pIC50 is 8.92 in test [1] (setting [3]) and 5.81 in test [2] (setting [6]).
